Laboratory results published in PMC6792352, “Limited Chemical Structural Diversity Found to Modulate Thyroid Hormone Receptor in the Tox21 Chemical Library” (Environmental Health Perspectives, 2019).
Like-named read-outs stand apart in the source and are kept apart here.

Experiments:
in vitro [1] = assay: in vitro; design: species or system GH3-TRE-Luc (rat pituitary); CellTiter-Fluor viability run in parallel with antagonist mode (1 nM T3), loss of viability; details: rat, gh3-tre-luc cells, AC50 (uM) modified / 1000, Tox21_110001=Tox21_113033, viability, 1 nM T3 present
[2] = system: thyroid hormone receptor (endogenous TRα and TRβ); assay: cells; design: species or system GH3-TRE-Luc (rat pituitary); GH3-TRE-Luc luciferase reporter transactivation, agonist mode, qHTS; RXR ligands can also activate indirectly; details: 24 h, read-out: TR_LUC_GH3_Agonist_AC50 (uM)
[3] = system: thyroid hormone receptor (endogenous TRα and TRβ); assay: cells; design: species or system GH3-TRE-Luc (rat pituitary); GH3-TRE-Luc luciferase reporter, antagonist mode against 1 nM T3, loss of signal, qHTS; details: 24 h; antagonist mode, 1 nM T3; no GH3 cytotoxicity hit; read-out: Average AC50 (uM) GH3-TRE-Antag
[4] = biological target: human retinoid X receptor alpha (RXRα) ligand-binding domain of the GeneBLAzer RXRα-UAS-bla HEK 293T one-hybrid assay (human)
[5] = biological target: T1, TRα ligand-binding domain (Homo sapiens, UniProt P10827); assay: TRa-coa LanthaScreen TR-FRET coactivator (SRC-2 peptide) recruitment, agonist (TOX21_TRA_COA_Agonist_Followup_ratio, aeid 2230); format: biochemical; details: for TRa-coa hitc: hit call from tcpl; for Emax: read-out: EMax (% of Control) tra-coa-agonist-followup-1
T1 construct: the receptor LBDs expressed as glutathione S-transferase (GST) fusion proteins; purchased

[6] = biological target: T2, human TRβ ligand-binding domain (Homo sapiens, UniProt P10828); assay: TRb-coa LanthaScreen TR-FRET coactivator (SRC-2 peptide) recruitment, agonist (TOX21_TRB_COA_Agonist_Followup_ratio, aeid 2244); format: biochemical; design: host or cells: GeneBLAzer UAS-bla HEK 293T; details: for TRb-coa hitc: hit call from tcpl; for Emax: read-out: EMax (% of Control) trb-coa-agonist-followup-1
T2 sequence (P10828 217-461 limits assumed): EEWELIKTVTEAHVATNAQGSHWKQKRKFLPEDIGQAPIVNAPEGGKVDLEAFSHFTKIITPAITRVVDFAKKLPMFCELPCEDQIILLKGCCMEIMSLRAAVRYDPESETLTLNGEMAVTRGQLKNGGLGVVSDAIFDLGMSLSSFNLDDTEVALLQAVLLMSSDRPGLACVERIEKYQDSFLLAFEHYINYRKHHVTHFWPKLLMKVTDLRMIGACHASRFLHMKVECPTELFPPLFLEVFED

GH3-TRE-Luc cell line [7] = details: read-out: AC50 (uM) modified / 1000; Tox21_110001=Tox21_303049; viability, 1 nM T3 present, 24 h
GH3-TRE-Luc cell line [8] = assay: GH3-TRE-Via cell viability, CellTiter-Fluor (TOX21_TR_LUC_GH3_Antagonist_viability, aeid 805)
luciferase = luciferase (Photinus pyralis, UniProt P08659); assay: Luciferase inhibition
[9] = system: thyroid hormone receptor (TR); assay: Classification of TR actives across characterization assays (TR-Ag / RXR-Ag; TR model binary); design: key to Categorization Code: FP, false positive; details: for Categorization Code: TR agonist characterization
Summary of the method: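 GH3-TRE qHTS agonist, antagonist and viability modes over 8,305 compounds; 84 candidates rescreened in GH3-TRE-Ag, TRβ- and RXRα-UAS-bla HEK 293T one-hybrid assays, HEK293T viability, and TRα/TRβ coactivator recruitment. Actives classified binary after removing pharmaceuticals.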

[10] = system: thyroid hormone receptor (endogenous TRα and TRβ); assay: GH3-TRE-Ag-Followup confirmation (TOX21_TR_LUC_GH3_Agonist_Followup, aeid 2226); format: cell-based, rat; details: for GH3-TRE-Ag-Followup hitc: hit call from tcpl; for AC50: read-out: GH3-TRE-Ag-Followup AC50
human RXRα = biological target: T3, human RXRα (Homo sapiens, UniProt P19793); assay: RXRa-bla-Ag mammalian one-hybrid beta-lactamase assay (TOX21_TR_RXR_BLA_Agonist_Followup_ratio, aeid 2253); format: cell-based; details: for tr-followup-rxr-bla-agonist-1 hitc: hit call from tcpl; for Emax: read-out: EMax (% of Control) tr-followup-rxr-bla-agonist-1
T3 construct: host or cells: GeneBLAzer UAS-bla HEK 293T
T3 sequence (P19793 227-458 limits assumed): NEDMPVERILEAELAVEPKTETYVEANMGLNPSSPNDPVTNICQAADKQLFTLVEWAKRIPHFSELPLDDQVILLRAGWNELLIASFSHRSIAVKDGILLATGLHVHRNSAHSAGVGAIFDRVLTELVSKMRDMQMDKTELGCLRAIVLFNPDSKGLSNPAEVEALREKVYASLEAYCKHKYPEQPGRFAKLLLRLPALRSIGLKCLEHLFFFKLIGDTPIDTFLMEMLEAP

in vitro [11] = details: rat, gh3-tre-luc cells, AC50 (uM) modified / 1000
[12] = system: thyroid hormone receptor (endogenous TRα and TRβ); assay: GH3-TRE-Ag primary qHTS, luciferase reporter, agonist mode (TOX21_TR_LUC_GH3_Agonist, aeid 803); format: cell-based, rat; details: for GH3-TRE-Ag AC50 hitc: hit call from tcpl; for AC50: read-out: GH3-TRE-Ag AC50
[13] = biological target: T2, human TRβ ligand-binding domain; assay: TRb-bla agonist mammalian one-hybrid beta-lactamase assay (TOX21_TRB_BLA_Agonist_Followup_ratio, aeid 2236); format: cell-based; design: host or cells: GeneBLAzer UAS-bla HEK 293T; details: for TRb-bla hitc: hit call from tcpl
GH3-TRE-Luc cell line [14] = system: GH3-TRE-Luc cell line
[15] = system: Tox21 cell viability assays (different cell types); assay: Global cytotoxicity: eighteen Tox21 cell viability assays; format: cell-based
[16] = as above; format: cell-based

T1 sequence (P10827 163-410 isoform P10827-2 limits assumed, other chains not shown): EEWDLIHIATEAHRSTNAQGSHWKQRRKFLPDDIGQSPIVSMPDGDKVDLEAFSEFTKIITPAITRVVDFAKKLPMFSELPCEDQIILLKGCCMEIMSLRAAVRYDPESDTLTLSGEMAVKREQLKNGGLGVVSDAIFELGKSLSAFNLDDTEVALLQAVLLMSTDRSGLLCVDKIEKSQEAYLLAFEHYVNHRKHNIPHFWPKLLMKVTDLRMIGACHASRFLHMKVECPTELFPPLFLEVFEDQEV
Chain of luciferase (P08659 whole entry, species assumed): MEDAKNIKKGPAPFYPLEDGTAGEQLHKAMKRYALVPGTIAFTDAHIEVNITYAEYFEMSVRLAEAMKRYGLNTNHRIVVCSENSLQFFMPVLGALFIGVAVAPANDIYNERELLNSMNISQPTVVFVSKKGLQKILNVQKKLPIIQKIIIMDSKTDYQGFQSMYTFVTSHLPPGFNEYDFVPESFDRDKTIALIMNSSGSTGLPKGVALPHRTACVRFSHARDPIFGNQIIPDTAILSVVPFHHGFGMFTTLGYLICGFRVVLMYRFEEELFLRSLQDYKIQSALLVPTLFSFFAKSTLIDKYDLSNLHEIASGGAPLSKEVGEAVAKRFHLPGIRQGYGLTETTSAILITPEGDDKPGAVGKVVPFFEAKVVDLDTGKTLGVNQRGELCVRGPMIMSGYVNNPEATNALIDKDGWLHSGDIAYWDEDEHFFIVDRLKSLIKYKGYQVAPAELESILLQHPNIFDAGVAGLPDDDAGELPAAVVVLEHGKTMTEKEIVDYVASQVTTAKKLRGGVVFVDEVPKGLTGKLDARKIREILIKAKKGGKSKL

C[C@]12CC[C@@H]3c4ccc(OC(=O)N(CCCl)CCCl)cc4CC[C@H]3[C@@H]1CC[C@@H]2OP(=O)(O)O [Estramustine phosphate]
CC50 at 24 h (in vitro [1]): > 50 µM | AC50 [2]: > 50 µM | AC50 [3]: 42.9 µM

Sincalide (peptide)
RXRa-bla-Ag AC50 (β-lactamase reporter gene, RXRα-UAS-bla HEK 293T mammalian one-hybrid assay, agonist mode) [4]: 10.5 µM

CN(C)c1ccc(N=O)cc1 [N,N-dimethyl-4-nitrosoaniline]
AC50 ([5]; agonist, read-out: TRa-coa AC50): > 92 µM | TRa-coa hitc ([5]; agonist): 0 | Emax [5]: -0.217% | AC50 ([6]; agonist, read-out: TRb-coa AC50): > 92 µM | TRb-coa hitc ([6]; agonist): 0 | Emax [6]: -0.165% | CC50 (GH3-TRE-Luc cell line [7]): 8.37 µM | AC50 (GH3-TRE-Luc cell line [8]; Rattus norvegicus, read-out: TR_LUC_GH3_Antagonist_viability AC50 (uM)): 6.9 µM | TR_LUC_GH3_Antagonist_viability hitc (GH3-TRE-Luc cell line [8]; hit call from tcpl): 1 | luciferase inhibition (luciferase): luciferase inhibitor | Categorization Code [9]: FP | EMax (% of Control) gh3-tre-agonist-followup-1_agonist [10]: 47.7 % of Control | GH3-TRE-Ag-Followup hitc [10]: 1 | AC50 [10]: 9.01 µM | AC50 (human RXRα): > 92 µM | tr-followup-rxr-bla-agonist-1 hitc (human RXRα): 0 | Emax (human RXRα): 1.8% | CC50 at 24 h (in vitro [11]): 5.44 µM | EMax (% of Control) gh3-tre-agonist [12]: 31.0 % of Control | GH3-TRE-Ag AC50 hitc [12]: 1 | AC50 [12]: 12.3 µM | AC50 ([13]; agonist, read-out: TRb-bla AC50): > 92 µM | TRb-bla hitc ([13]; agonist): 0 | Emax ([13]; read-out: EMax (% of Control) trb-bla-agonist-followup-1): 8.4%

CSCC[C@H](NC(=O)[C@H](Cc1ccc(OS(=O)(=O)O)cc1)NC(=O)[C@@H](N)CC(=O)O)C(=O)NCC(=O)N[C@@H](Cc1c[nH]c2ccccc12)C(=O)N[C@@H](CCSC)C(=O)N[C@@H](CC(=O)O)C(=O)N[C@@H](Cc1ccccc1)C(N)=O [Sincalide, reference compound]
AC50 ([5]; cell-free coactivator recruitment, read-out: TRa-coa-Ag AC50): > 92 µM | TRa-coa hitc ([5]; agonist): 0 | Emax [5]: -0.4% | AC50 ([6]; cell-free coactivator recruitment, read-out: TRb-coa-Ag AC50): > 92 µM | TRb-coa hitc ([6]; agonist): 0 | Emax [6]: -0.125% | TR_LUC_GH3_Antagonist_viability hitc (GH3-TRE-Luc cell line [14]): 0 | Categorization Code [9]: RXR-Ag | Classification ([9]; TR-Ag = TR agonist, RXR-Ag = RXR agonist): RXR-Ag | EMax (% of Control) gh3-tre-agonist-followup-1_agonist [10]: 19.9 % of Control | AC50 ([10]; confirmation, agonist mode): 8.59 µM | GH3-TRE-Ag-Followup hitc [10]: 0 | AC50 (human RXRα; HEK 293T one-hybrid, agonist mode, inactive set to 1,000, read-out: RXRa-bla-Ag AC50): 10.5 µM | tr-followup-rxr-bla-agonist-1 hitc (human RXRα): 1 | Emax (human RXRα): 36.1% | GLOBAL CYTOTOXICITY cytotox.median [15]: >92 | GLOBAL CYTOTOXICITY cytotox.number_Active [15]: 0 | AC50 [16]: > 92 µM | EMax (% of Control) gh3-tre-agonist [12]: 80.1 % of Control | GH3-TRE-Ag AC50 hitc [12]: 1 | AC50 ([12]; primary qHTS, agonist mode, 24 h, top concentration 92 μM): 12.4 µM | AC50: > 92 µM | AC50 ([13]; HEK 293T one-hybrid, agonist mode, read-out: TRb-bla-Ag AC50): > 92 µM | TRb-bla hitc ([13]; agonist): 0
